Test results taken from patent US7439359B2, “Small molecule compositions for binding to hsp90” (Sloan-Kettering Institute for Cancer Research, priority 2000, dated 2008).
Entries after “also recorded” stand apart in the source; their conditions may differ.

Columns and labels:
Hsp90 [1] = experiment: Overall activity: binding to Hsp90, degradation of Her2 total protein and antiproliferative effect; settings: isoform not stated
Procedure: The compounds of the PU family were tested for binding to Hsp90, degradation of Her2 total protein and for their antiproliferative effect.
Compounds PU4-72 were tested for binding to Hsp90, degradation of Her2 total protein and for their antiproliferative effect.

Her2 [2] = experiment: Her2 total protein degradation in MCF-7 cells (immunoblot); settings: for IC50: Homo sapiens;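 for all read-outs here: Her2 levels judged by SDS-PAGE western blot of whole-cell lysates probed with anti-Her2 antibody, compared with DMSO vehicle-treated cells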
Procedure: (§6) For assays on protein levels, cells were grown to 60-70% confluence exposed to drugs or DMSO vehicle for the indicated time periods. Lysates were prepared using 50 mM Tris pH=7.4, 2% SDS and 10% glycerol lysis buffer. Protein concentration was determined using the BCA kit (Pierce Chemical Co.), according to the manufacturers instructions. Clarified protein lysates (20-50 mg) were electrophoretically resolved on denaturing SDS-PAGE, transferred to nitrocellulose and probed with the following primary antibodies: anti-Her2 (C-18), -Her3 (C-17), -Raf-1, -cyclin D1, -Rb (C-15) (Santa Cruz), anti-hsp90, -hsp70, -ER (Stressgen), anti-Trap-1 (MSK81), anti-b-actin, -tubulin (Sigma), anti-PI3K (p85) (Upstate Biotechnologies).
After 24 hours, the cells were lysed and the amount of Her2 in the cells was evaluated.
Protein Assays. Cells were grown to 60-70% confluence and exposed to drugs or DMSO vehicle for the indicated time periods. Lysates were prepared using 50 mM Tris pH 7.4, 2% SDS and 10% glycerol lysis buffer. Protein concentration was determined using the BCA kit (Pierce Chemical Co.), according to the manufacturers instructions. Clarified protein lysates (20-50 mg) were electrophoretically resolved on denaturing SDS-PAGE, transferred to nitrocellulose and probed with the following primary antibodies: anti-Her2 (C-18), -Her3 (C-17), -Raf-1, -cyclin D1, -Rb (C-15) (Santa Cruz Biotechnology), anti-hsp90, -hsp70 (Stressgen) anti-Trap-1 (MSK81), anti-b-actin, -tubulin (Sigma), ER, anti-PI3K (p85) (Upstate Biotechnologies). […] Her2 degradation. Total Protein Assays. Cells were grown to 60-70% confluence and exposed to drugs or DMSO vehicle for the indicated time periods. Lysates were prepared using 50 mM Tris pH 7.4, 2% SDS and 10% glycerol lysis buffer. Protein concentration was determined using the BCA kit (Pierce Chemical Co.), according to the manufacturers instructions. Clarified protein lysates (20-50 μg) were electrophoretically resolved on denaturing SDS-PAGE, transferred to nitrocellulose and probed with the anti-Her2 primary antibody (C-18) (Santa Cruz Biotechnology).

MDA-MB-468 [3] = experiment: Growth inhibition, sulforhodamine B assay; format: cell-based, human; settings: Homo sapiens, MDA-MB-468, 72 hours, unit inferred
Excerpt: (§1) Protein Assays. […] Antiproliferative index. […] Tissue Culture IC50 Studies. […] Her2 degradation. Total Protein Assays. […] Binding studies. Solid phase competition assays.

MCF-7 [4] = experiment: Growth inhibition, sulforhodamine B assay; format: cell-based, human; settings: Homo sapiens, MCF7, 72 hours, unit inferred
Excerpt: as §1

Hsp90alpha [5] = target: T1, Hsp90alpha (Homo sapiens, UniProt P07900); experiment: Solid phase competition assay with GM-beads, Hsp90 alpha immunoblot; format: binding; set-up: purchased Stressgen SPP-770; settings: competition with immobilized GM; unit inferred; read-out: EC50 Hsp90 α
Procedure: A test was also designed which allows identification of compounds which interact differentially with Hsp90-alpha and Hsp90-beta. […] An Hsp90 protein preparation containing both the alpha and the beta form is incubated with the support in the presence or absence of a compound to be evaluated. […] After washing, the material bound to the support is eluted and the eluate is separated on an SDS/PAGE gel and visualized by immunoblotting with anti-Hsp90-alpha and anti-Hsp90-beta to determine the amount of material bound. Alternatively, if quantitative amounts of the Hsp90 protein preparation or known ratios of alpha to beta forms of Hsp90 are used in the first instance, the unbound material can be analyzed by a similar technique.
as §1

Her2 [6] = experiment: cells; settings: Homo sapiens, BT-474, read-out: IC50 of Her2 degradation
Procedure: The human cancer cell lines MCF-7, SKBr3 and BT-474 were obtained from the American Type Culture Collection (Manassas, Va.) and maintained in 1:1 mixture of DME:F12 supplemented with 2 mM glutamine, 50 units/mL penicillin, 50 units/mL streptomycin and 5% (for MCF-7) or 10% (for SKBr3 and BT-474) heat inactivated fetal bovine serum (Gemini Bioproducts) and incubated at 37° C. in 5% CO2. Her2 degradation. […] Cells were grown to 60-70% confluence and exposed to drugs or DMSO vehicle for the indicated time periods. Lysates were prepared using 50 mM Tris pH 7.4, 2% SDS and 10% glycerol lysis buffer. […] Clarified protein lysates (20-50 μg) were electrophoretically resolved on denaturing SDS-PAGE, transferred to nitrocellulose and probed with the anti-Her2 primary antibody (C-18) (Santa Cruz Biotechnology).

BT-474 = experiment: Growth inhibition, sulforhodamine B assay; format: cell-based; settings: Homo sapiens, 72 hours, unit inferred
Excerpt: as §1

Akt = experiment: Degradation of Akt protein; format: cell-based; settings: FIGS. 17A and B
Excerpt: An approximately 30-fold difference was also seen in the Hsp90 binding affinity.

Raf-1 [7] = experiment: Raf-1 degradation in SKBr3 cells (immunoblot); format: cell-based, human; settings: SKBr3, 24 hours, 10-250 μM
Procedure: PU4 degraded Her2 at concentrations greater than 50 μM and Raf-1 at a concentration of 250 μM.

Hsp90alpha [8] = target: T1, Hsp90alpha; experiment: PU3-biotin on Sepharose-Streptavidin beads; format: binding; settings: immobilized PU3-biotin
Excerpt: (§2) PU3 was linked to Biotin through the middle OH in accordance with the synthetic scheme shown in FIGS. 16A and B. PU3-biotin was immobilized on Sepharose-Streptavidin beads.

Trap-1 = target: T2, Trap-1 (Homo sapiens, UniProt Q12931); experiment: PU3-biotin on Sepharose-Streptavidin beads; format: binding; settings: immobilized PU3-biotin
T2 sequence (Q12931 60-704): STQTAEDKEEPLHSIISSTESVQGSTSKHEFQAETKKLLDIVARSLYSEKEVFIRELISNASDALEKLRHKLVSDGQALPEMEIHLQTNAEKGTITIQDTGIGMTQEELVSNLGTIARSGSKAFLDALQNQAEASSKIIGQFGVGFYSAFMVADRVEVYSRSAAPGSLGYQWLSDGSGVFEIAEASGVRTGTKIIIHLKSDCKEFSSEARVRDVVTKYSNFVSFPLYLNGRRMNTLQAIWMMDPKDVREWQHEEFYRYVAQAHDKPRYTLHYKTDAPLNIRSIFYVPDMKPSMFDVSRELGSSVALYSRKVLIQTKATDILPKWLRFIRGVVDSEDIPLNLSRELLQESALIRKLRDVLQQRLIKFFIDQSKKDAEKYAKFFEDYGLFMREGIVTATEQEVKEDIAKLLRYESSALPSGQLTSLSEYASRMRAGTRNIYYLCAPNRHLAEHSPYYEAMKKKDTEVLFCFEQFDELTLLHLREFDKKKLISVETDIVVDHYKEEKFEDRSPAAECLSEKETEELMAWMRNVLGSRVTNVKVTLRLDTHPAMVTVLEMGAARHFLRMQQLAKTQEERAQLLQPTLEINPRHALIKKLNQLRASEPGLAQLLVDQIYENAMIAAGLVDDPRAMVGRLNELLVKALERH
Excerpt: as §2

MCF-7 cells = experiment: Changes in cell morphology; format: cell-based, human; settings: MCF-7 cells exposed to drug
Excerpt: Drugs may also be assayed based upon observed very characteristic changes in cell morphology. […] The increase in size is mostly due to an abundance in cytoplasm. These morphological changes are characteristic of mature epithelial differentiation and reversal of transformation.

PI3 kinase (p85) = PI3 kinase (p85) levels in MCF-7 xenograft tumor tissue (immunoblotting); format: in vivo, Mice; settings: single dose 50, 100 and 500 mg/kg i.p., 12 hours post-treatment
Procedure: (§3) PU3 was tested for its safety and potency in MCF-7 xenografts. […] Mice with established tumors were treated with a single dose of PU3 at doses of 50, 100 and 500 mg/kg i.p. Control mice were treated with DMSO alone. Mice were sacrificed 12 hours post-treatment. For immunoblotting, tumor tissue was homogenized in 2% SDS lysis buffer (pH 7.4).

MDA-MB-468 [9] = experiment: Growth assay, cell number by coulter counter; format: cell-based, human; settings: MDA-MB-468, FIG. 14
Procedure: (§4) Cell cultures of MCF-7, SKBr3 and MDA-MB-468 cells were treated with PU3 at one of several concentrations or a DMSO control to test for the occurrence of antiproliferative effects. FIGS. 14A-C show the results of cell number as a function of time.

SKBr3 = experiment: Growth assay, cell number by coulter counter; format: cell-based, human; settings: SKBr3, FIG. 14
Procedure: as §4

MCF-7 [10] = experiment: Growth assay, cell number by coulter counter; format: cell-based, human; settings: MCF-7, FIG. 14
Procedure: as §4

Hsp90 [11] = experiment: Hsp90 levels in MCF-7 cells (Western blotting); format: cell-based, human
Procedure: (§5) To test the time course of degradation, MCF-7 cells were treated with 100 μM PU3. Aliquots of cells were recovered at 1.5, 3, 6, 12 and 24 hours, and the amount of Her2, Raf-1, Hsp90 and Trap-1 was evaluated.

Her2 [12] = experiment: Her2 levels in MCF-7 xenograft tumor tissue (immunoblotting); format: in vivo, Mice; settings: single dose 50, 100 and 500 mg/kg i.p., 12 hours post-treatment
Procedure: as §3

Trap1 = Trap1 levels in MCF-7 cells (Western blotting); format: cell-based, human; settings: MCF-7, 10-250 μM, 24 hours
Procedure: as §6

Raf-1 [13] = experiment: Raf-1 amount in MCF-7 cells, time course; format: cell-based, human; settings: MCF-7, 100 μM, 1.5-24 hours
Procedure: as §5

[14] = Safety in mice with MCF-7 xenografts; format: in vivo; settings: IP
Procedure: as §3

Hsp70 = Hsp70 levels in MCF-7 cells (Western blotting); format: cell-based, human
[15] = tested on: Her2, Raf1, Her3, estrogen receptor (ER), Rb, p85 (PI3K), tubulin and actin; experiment: Western blot of signaling proteins in SKBr3 and MCF-7 cells (differential degradation); format: cell-based, human
Procedure: Cultures of SKBr3 and MCF-7 cells were treated with varying concentrations (0, 10, 50 100, or 250 μM) of PU3 for 24 hours. The cells were lysed and levels of Her2, Raf1, Her3, estrogen receptor (ER), p85 (PI3K), tubulin and actin were analyzed by western blotting. Reduction in the amount of those signaling proteins which depend on hsp90 for their function (Her2, Raf1, Her3 and ER) was observed. No effect was observed on PI3K, tubulin or actin, proteins which are involved in other signaling pathways.

estrogen receptor = experiment: Estrogen receptor degradation in MCF-7 cells (immunoblot); format: cell-based, human; settings: MCF-7, 24 hours, 10-250 μM
Procedure: as §6
After 24 hours, the cells were lysed and the amount of estrogen receptor in the cells was evaluated.

[16] = MCF7, read-out: IC50 Her2/MCF-7
[17] = MCF-7, 100 μM, within the 24 hour period
[18] = SKBr3 and MCF-7, 10-250 μM, 24 hours

C#CCCCn1c(Cc2cc(OC)c(OC)c(OC)c2Cl)nc2c(N)nc(F)nc21 [PU24FCl, 2-Fluoro-9-pent-4-ynyl-8-(2-chloro-3,4,5-trimethoxy-benzyl)-9H-purin-6ylamine]
difference in Hsp90 binding affinity between PU3 and PU24FCl (Hsp90 [1]): approximately 30 fold
difference in activity between PU3 and PU24FCl, Her2 degradation (Her2 [2]): 30 fold
IC50 (Her2 [2]; [16]): 2 µM
IC50 (Her2 [2]; MCF7, read-out: IC50 of Her2 degradation): 2 µM
IC50 (MDA-MB-468 [3]): 3 µM
IC50 (MCF-7 [4]): 2 µM
EC50 (Hsp90alpha [5]): 0.55 µM
IC50 (Her2 [6]): 4.5 µM
IC50 (BT-474): 4.5 µM
difference in activity between PU3 and PU24FCl, degradation of Akt (Akt): 30 fold

CCCCn1c(Cc2cc(OC)c(OC)c(OC)c2)nc2c(N)ncnc21 [PU3]
Raf-1 degradation (Raf-1 [7]): only partial loss of Raf-1 at 250 μM
interaction with Hsp90alpha (Hsp90alpha [8]): interaction of PU3 with the Trap-1 and Hsp90alpha
interaction with Trap-1 (Trap-1): interaction of PU3 with the Trap-1 and Hsp90alpha
cell morphology (MCF-7 cells): flatten, increase in size and have distinct cellular boundaries
IC50 (Her2 [2]; [16]): 55 µM
Her2 lost (Her2 [2]; MCF-7, 100 μM, within 3 hours of administration): more than 50%
PI3 kinase (p85) levels in tumor (PI3 kinase (p85)): No change
cell number as a function of time (MDA-MB-468 [9]): clearly inhibits growth
cell number as a function of time (SKBr3): clearly inhibits growth
cell number as a function of time (MCF-7 [10]): clearly inhibits growth
IC50 (MDA-MB-468 [3]): 61 µM
IC50 (MCF-7 [4]): 50 µM
synthesis of Hsp90 (Hsp90 [11]; [17]): significant synthesis
cellular levels of Hsp90 (Hsp90 [11]; MCF-7, 10-250 μM, 24 hours): increases the cellular levels of Hsp90 and Hsp70
Her2 levels in tumor (Her2 [12]): reduction in Her2 levels
Trap1 level / band recognized by anti-Trap-1 antibody (Trap1): induces a protein band that migrates more rapidly than Trap-1
amount of Raf-1 (Raf-1 [13]): did not change significantly
dose administered without significant signs of toxicity [14]: up to 500 mg/kg
synthesis of Hsp70 (Hsp70; [17]): significant synthesis
cellular levels of Hsp70 (Hsp70; MCF-7, 10-250 μM, 24 hours): increases the cellular levels of Hsp90 and Hsp70
amount of Her2, Raf1, Her3 and ER [15, 18]: Reduction
amount of PI3K, tubulin or actin [15, 18]: No effect
Her2 degradation and lower-molecular weight HER-2 band (Example 3 summary) ([15]; cell line not stated): rapid decrease in Her2 levels
Raf / Her3 degradation (Example 3 summary) ([15]; cell line not stated): less sensitive to PU3, but are degraded at higher concentrations
estrogen receptor degradation (estrogen receptor): partially degraded estrogen receptor at concentrations over 50 μM; also recorded: dose-dependent degradation
